Experimental data taken from ChEMBL document CHEMBL1134942, “Synthesis and structure--activity relationship of novel aminotetralin derivatives with high micro selective opioid affinity” (Bioorg Med Chem Lett, 2002).

Experiments:
Mus musculus [1] = organism: Mus musculus; assay: Antinociceptive activity in mice was determined using Tail flick method.; assay type: functional
Mus musculus [2] = organism: Mus musculus; assay: Antinociceptive activity in mice was determined using PBQ assay.; assay type: functional
Mu-type opioid receptor = Mu-type opioid receptor (Homo sapiens, UniProt P35372); assay: Binding affinity for Opioid receptor mu 1
Mu-type opioid receptor, sequence (P35372 whole entry): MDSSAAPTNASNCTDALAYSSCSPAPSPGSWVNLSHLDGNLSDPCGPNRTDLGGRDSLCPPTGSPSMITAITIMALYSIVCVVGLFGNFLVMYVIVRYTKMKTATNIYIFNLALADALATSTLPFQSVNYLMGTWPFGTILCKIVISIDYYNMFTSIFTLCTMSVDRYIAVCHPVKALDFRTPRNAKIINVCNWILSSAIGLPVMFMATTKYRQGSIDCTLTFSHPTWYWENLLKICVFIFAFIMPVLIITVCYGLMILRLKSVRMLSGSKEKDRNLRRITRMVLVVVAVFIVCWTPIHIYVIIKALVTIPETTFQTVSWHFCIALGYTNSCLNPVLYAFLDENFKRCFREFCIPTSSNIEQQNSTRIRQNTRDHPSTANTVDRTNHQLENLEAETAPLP

[3] = molecular target: Kappa-type opioid receptor (Homo sapiens, UniProt P41145); assay: Binding affinity for Opioid receptor kappa 1 was determined.
Kappa-type opioid receptor, sequence (P41145 whole entry): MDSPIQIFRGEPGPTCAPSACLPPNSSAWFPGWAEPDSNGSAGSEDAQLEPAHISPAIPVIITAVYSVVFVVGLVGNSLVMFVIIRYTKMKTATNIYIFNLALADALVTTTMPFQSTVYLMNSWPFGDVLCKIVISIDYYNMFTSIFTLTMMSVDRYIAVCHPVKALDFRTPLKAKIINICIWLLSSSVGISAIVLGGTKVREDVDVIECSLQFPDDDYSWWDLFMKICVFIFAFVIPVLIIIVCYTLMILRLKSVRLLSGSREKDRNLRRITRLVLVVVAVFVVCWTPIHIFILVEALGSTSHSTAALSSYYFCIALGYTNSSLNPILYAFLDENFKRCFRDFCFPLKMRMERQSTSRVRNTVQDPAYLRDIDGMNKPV

[4] = molecular target: Delta-type opioid receptor (Homo sapiens, UniProt P41143); assay: Binding affinity for Opioid receptor delta 1 was determined
Delta-type opioid receptor, sequence (P41143 whole entry): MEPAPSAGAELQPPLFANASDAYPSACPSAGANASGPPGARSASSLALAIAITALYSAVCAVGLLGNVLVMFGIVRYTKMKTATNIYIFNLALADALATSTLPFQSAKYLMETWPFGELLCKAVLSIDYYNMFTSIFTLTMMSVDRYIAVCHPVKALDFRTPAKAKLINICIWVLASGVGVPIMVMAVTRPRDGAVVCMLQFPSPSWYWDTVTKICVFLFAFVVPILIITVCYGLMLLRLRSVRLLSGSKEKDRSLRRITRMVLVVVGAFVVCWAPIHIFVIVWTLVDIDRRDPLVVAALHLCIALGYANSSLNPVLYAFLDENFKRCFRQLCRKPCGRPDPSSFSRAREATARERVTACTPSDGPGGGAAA

Compound	ED50 (Mus musculus [1]) [µmol/kg]	ED50 (Mus musculus [2]) [µmol/kg]	Ki (Mu-type opioid receptor) [nM]	Ki [3] [nM]	Ki [4] [nM]
CN1CC[C@]23c4c5ccc(O)c4O[C@H]2[C@@H](O)C=C[C@H]3[C@H]1C5 [MORPHINE]	1.2	1.6			
C[C@@]12CCCCS[C@@H](Cc3ccc(O)cc31)C2N (stereo partly specified)		0.33	0.79	43.4	420
CC1(C)c2cc(O)ccc2C[C@@H](S(C)(=O)=O)[C@H]1N			1150		
CC[C@H]1Cc2ccc(O)cc2C(C)(C)[C@@H]1N			135		
C[S+]([O-])[C@@H]1Cc2ccc(O)cc2C(C)(C)[C@@H]1N (stereo in doubt; 18A)			1060		
CS[C@@H]1Cc2ccc(O)cc2C(C)(C)[C@@H]1N	0.58	0.14		66	349
CC[C@@H]1Cc2ccc(O)cc2C(C)(C)[C@@H]1N	10.4	4.8	21	345	4510
CC1(C)c2cc(O)ccc2C[C@@H](O)[C@H]1N			204		
C[S+]([O-])[C@@H]1Cc2ccc(O)cc2C(C)(C)[C@@H]1N (stereo in doubt; 18B)			2000		
CC1(C)c2cc(O)ccc2C[C@@H](S)[C@H]1N			163		
CO[C@@H]1Cc2ccc(O)cc2C(C)(C)[C@@H]1N	16	1.1	1.8	184	5220
